Experimental data as given in patent publication US20120064556A1, “LIPOPROTEIN LIPASE ASSAY” (THE RESEARCH FOUNDATION OF STATE UNIVERSTIY OF NEW YORK, priority 2010, published 2012).

Key:
[1] = solubility and shelf life of substrate in the assay buffer; assay type: physicochemical
lipoprotein lipase (LPL) = experiment: EnzChek substrate fluorescence assay of LPL activity; assay type: biochemical; conditions: for increase of LPL activity: over the concentration ranges tested (FIGS. 5A and 5B)
Description: In FIG. 1, background substrate hydrolysis was deducted from each measurement, initial rate was plotted against substrate concentration and each data point is the mean of triplicate determinations.
The effects of components that may be present in biological LPL samples and affect the assay were also evaluated and illustrated in FIG. 5. Addition of heparin and calcium increased LPL activity by about 6% over the concentration ranges tested, shown in FIGS. 5A and 5B, while HIS, added from 0-10% decreased the activity by about 12%, shown in FIG. 5C. Addition of NaCl increased the reaction rate, shown in FIG. 5D, with the highest rate, 46% higher than that without salt, occurring at 0.15 M. As NaCl was increased further, the reaction rate dropped, but even at 2.5 M was not reduced to that without NaCl. This implies that there is no inhibition of LPL activity by NaCl if apoC-II is not used in the assay.
The SpectraMax® M2 plate reader and SoftMax® Pro 5 from MDS Analytical Technologies were used for fluorescent measurements. The optimal wavelength was determined to be […] with a 495 nm filter cutoff. The linear capacity of these instruments is up to 2.4 μmol/well. An assay was performed in a black 96-well plate from Costar® in the presence of 0.15 M NaCl, 20 mM Tris-HCl, and 0.0125% Zwittergent® and 1.5% fatty acid free BSA. A 4× working solution was freshly prepared with 0.6 M NaCl, 80 mM Tris-HCl and 6% fatty acid free BSA. The background hydrolysis rate of the substrate was about 1 pmol/min. In the typical assay, the amount of substrate hydrolyzed was less than about 5% of the available substrate.
Enzymatic parameters were calculated using unquenched the BODIPY-C12 probe, the reaction rate in pmol/min was calculated. The rate of hydrolysis as determined from the continuous increase in fluorescence intensity is equal to the rate of separation of the quencher fatty acid from the substrate. Enzymatic parameters such as Vmax, Km, Kcat, detection limit, Z factors and correlation coefficient were calculated based on the standard definition of those parameters. The data is presented as mean plus standard deviation of three replicates and described below in Example 2 for a comparison of the inventive method and a traditional assay.

human LPL [2] = molecular target: T1, human LPL (Homo sapiens, UniProt P06858); experiment: EnzChek assay of human LPL activity in conditioned media; assay type: biochemical; conditions: 25 μL conditioned medium mixed with 25 μL human LPL medium, 30 minutes on ice, 0.62 μM EnzChek substrate, p<0.05 (FIG. 6A)
T1 construct: made in house; host or cells: HEK293 (conditioned medium, not purified)
T1 sequence (P06858 28-475): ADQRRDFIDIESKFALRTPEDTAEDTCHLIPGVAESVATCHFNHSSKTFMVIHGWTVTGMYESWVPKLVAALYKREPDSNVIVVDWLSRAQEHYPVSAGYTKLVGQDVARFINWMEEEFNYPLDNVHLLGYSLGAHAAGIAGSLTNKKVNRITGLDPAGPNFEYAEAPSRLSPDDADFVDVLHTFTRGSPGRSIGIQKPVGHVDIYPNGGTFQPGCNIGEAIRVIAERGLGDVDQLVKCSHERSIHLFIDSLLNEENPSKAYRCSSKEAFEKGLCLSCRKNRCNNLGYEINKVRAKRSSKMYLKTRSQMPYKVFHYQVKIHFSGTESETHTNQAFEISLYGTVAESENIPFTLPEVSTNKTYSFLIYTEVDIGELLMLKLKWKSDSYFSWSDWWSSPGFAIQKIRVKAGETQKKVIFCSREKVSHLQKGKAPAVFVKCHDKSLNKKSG
Description: Conditioned media was generated by transfection in HEK293 cells as is known. Medium obtained from cells expressing from an empty vector was included as a control for the LPL assay. No lipase activity was detected in the control medium. Pre and post-heparin mouse serum was obtained from blood drawn 5 minutes after the injection of 10 units heparin per kg body weight of the mouse.
To determine whether the conditions of the assay are such that the two forms of the enzyme are maintained and can be differentiated by the biological activity of the lipase, two conditioned media were generated containing human LPL and ANGPTL4 respectively.
(§1) Background substrate hydrolysis was deducted from each measurement. LPL activity is expressed as a percentage of the activity measured in the absence of ANGPTL4. The values are the mean +/− standard deviation in triplicate repeats, p<0.05.

human LPL [3] = molecular target: T1, human LPL; experiment: radiolabeled triolein assay of human LPL activity in conditioned media; assay type: biochemical; conditions: same samples, radiolabeled triolein assay (FIG. 6B)
Excerpt: as §1

**Q.** For `CCCCCCCCCCCCOCC(COC(=O)CCCC(=O)Oc1ccc2nc3ccc(=O)cc-3oc2c1C)OCCCCCCCCCCCC` (racemic) [DGGR substrate, 1,2-o-dilauryl-rac-glycero-3-glutaric acid-(6′-methylresorufin) ester], which “shelf life / precipitation in the assay buffer” value [1] is on record?
**A.** precipitated after only one week

**Q.** And the “solubility in the assay buffer” value [1]?
**A.** limited solubility

**Q.** Which results are given for `[Cl-].[Na+]` [NaCl]?
**A.** reaction rate higher than that without salt (lipoprotein lipase (LPL); highest rate, at 0.15 M (FIG. 5D)): 46%; inhibition of LPL activity (lipoprotein lipase (LPL); up to 2.5 M, apoC-II not used in the assay): no inhibition

**Q.** Which “increase of LPL activity” value (lipoprotein lipase (LPL)) does the source give for `[Ca+2]` [calcium] here?
**A.** about 6%

**Q.** Which “increase of LPL activity” value (lipoprotein lipase (LPL)) does the source give for heparin [reference compound] here?
**A.** about 6%

B1: ANGPTL4 conditioned media: conditioned medium from transfected HEK293 cells containing ANGPTL4, an endogenous inhibitor of LPL (protein, UniProt Q9BY76 26-406, looked up)
Angiopoietin-related protein 4: GPVQSKSPRFASWDEMNVLAHGLLQLGQGLREHAERTRSQLSALERRLSACGSACQGTEGSTDLPLAPESRVDPEVLHSLQTQLKAQNSRIQQLFHKVAQQQRHLEKQHLRIQHLQSQFGLLDHKHLDHEVAKPARRKRLPEMAQPVDPAHNVSRLHRLPRDCQELFQVGERQSGLFEIQPQGSPPFLVNCKMTSDGGWTVIQRRHDGSVDFNRPWEAYKAGFGDPHGEFWLGLEKVHSITGDRNSRLAVQLRDWDGNAELLQFSVHLGGEDTAYSLQLTAPVAGQLGATTVPPSGLSVPFSTWDQDHDLRRDKNCAKSLSGGWWFGTCSHSNLNGQYFRSIPQQRQKLKKGIFWKTWRGRYYPLQATTMLIQPMAAEAAS
modifications: in conditioned medium of transfected HEK293 cells
**Q.** Which results are given for B1?
**A.** effect on LPL activity (human LPL [2]): inhibited the LPL activity; effect on LPL activity (human LPL [3]): comparable result
